In brackets after ≈: the same amount, converted by molar mass. Several values for one entry are separate records, joined by “and”; a condition that tells them apart may be missing. Equal entries are not always repeated.

Test systems include Escherichia coli K91BK; Escherichia coli; Yersinia enterocolitica; Salmonella sp.
Holding throughout (test): ≥ marks a high value that may be exact or a test limit, other limits are often not marked, values filed in µg/mL are converted to µM
For test [1], the system named is Pseudomonas aeruginosa ATCC 9027.
For test [2], the system named is Staphylococcus aureus ATCC 6538.
The test system of test [3] is Escherichia coli ATCC 8739.
For test [4], the system named is Escherichia coli ATCC 25922.
Test [5] has as its system Klebsiella pneumoniae ATCC 10031.
Test [6] deals with Shigella dysenteriae ATCC 9752.
In test [7] the test system is Salmonella enterica subsp. enterica serovar Typhimurium ATCC 14028.
Test [8] concerns Staphylococcus epidermidis ATCC 12228.
In test [9] the test system is Micrococcus luteus ATCC 10240.
For test [10], the system named is Bacillus subtilis ATCC 6633.
For test [11], the system named is Staphylococcus aureus ATCC 6538P.
Test [12] relates to Pseudomonas aeruginosa ATCC 27853.
Test [13] relates to Bacillus subtilis var. niger ATCC 9372.
For test [14], the system named is Bacillus anthracis Sterne 34F2.
For test [15], the system named is Salmonella enterica subsp. enterica serovar Enteritidis.
Test [16] deals with Staphylococcus aureus ATCC 43300.
Test [17] concerns Staphylococcus aureus ATCC 29213.
For test [18], the system named is Staphylococcus aureus ATCC 25923.

Turning to `NCCCC[C@H](NC(=O)[C@H](Cc1c[nH]c2ccccc12)NC(=O)[C@H](Cc1ccccc1)NC(=O)[C@H](Cc1c[nH]c2ccccc12)NC(=O)[C@@H](N)CS)C(=O)N[C@@H](Cc1c[nH]c2ccccc12)C(=O)N[C@@H](Cc1c[nH]c2ccccc12)C(=O)N[C@@H](CCCN=C(N)N)C(=O)N[C@@H](CCCN=C(N)N)C(=O)N[C@@H](CCCN=C(N)N)C(=O)N[C@@H](CCCN=C(N)N)C(=O)N[C@@H](CCCN=C(N)N)C(N)=O` [CWFWKWWRRRRR], the MIC in test [1] was 5.5 µM and 8.7 µM; in test [2], 2.5 µM and 4.7 µM; in [3], 5.2 µM and 7.3 µM.

Consider `CC(C)C[C@H](NC(=O)[C@H](Cc1c[nH]c2ccccc12)NC(=O)[C@H](CCCCN)NC(=O)[C@H](CC(C)C)NC(=O)[C@@H](N)Cc1ccccc1)C(=O)N[C@@H](Cc1ccccc1)C(=O)N[C@@H](CCCCN)C(=O)N[C@@H](Cc1c[nH]c2ccccc12)C(=O)N[C@@H](C)C(=O)N[C@@H](CCCCN)C(=O)N[C@@H](CCCCN)C(N)=O` [FLKWLFKWAKK], for which the MIC stood at 8.36 µM (≈ 12.5 µg/mL) in test [4]; 8.36 µM (≈ 12.5 µg/mL) in [5]; 16.7 µM (≈ 25 µg/mL) in test [6]; 33.4 µM (≈ 50 µg/mL) in test [7]; 4.21 µM (≈ 6.3 µg/mL) in [8]; 2.07 µM (≈ 3.1 µg/mL) in test [9]. Further, the MIC in [10] was found to be 2.07 µM (≈ 3.1 µg/mL); in test [11], 4.21 µM (≈ 6.3 µg/mL); in test [12], 8.36 µM (≈ 12.5 µg/mL).

As for `CC[C@H](C)[C@H](NC(=O)[C@H](C)NC(=O)[C@H](CCCCN)NC(=O)[C@H](CCCN=C(N)N)NC(=O)CNC(=O)[C@H](Cc1ccccc1)NC(=O)[C@H](CCCCN)NC(=O)[C@H](CCCCN)NC(=O)[C@@H](NC(=O)[C@H](CC(C)C)NC(=O)[C@H](CCCCN)NC(=O)CNC(=O)[C@H](Cc1ccccc1)NC(=O)[C@H](CC(C)C)NC(=O)CNC(C)=O)[C@@H](C)CC)C(=O)N[C@@H](CO)C(=O)N[C@@H](Cc1ccc(O)cc1)C(=O)N[C@@H](C)C(=O)N[C@H](C(=O)N[C@@H](CCCCN)C(=O)N[C@@H](CCCCN)C(=O)N[C@@H](C)C(=O)N[C@@H](CCCN=C(N)N)C(=O)NCC(=O)N[C@@H](CCCCN)C(=O)N[C@@H](Cc1cnc[nH]1)C(N)=O)C(C)C` [GLFGKLIKKFGRKAISYAVKKARGKH], the results for the MIC (with Escherichia coli K91BK; in test [13]; in test [14]) were at least 100 µM, 2.37 µM (≈ 6.98 µg/mL) and 6.25 µM (≈ 18.4 µg/mL), respectively.

Turning to `CC(C)C[C@H](NC(=O)[C@H](CC(C)C)NC(=O)[C@H](Cc1c[nH]c2ccccc12)NC(=O)[C@H](CCCCN)NC(=O)[C@H](CC(C)C)NC(=O)[C@H](CC(C)C)NC(=O)[C@@H](N)CCCCN)C(=O)N[C@@H](CCCCN)C(N)=O` [KLLKWLLK], the MIC in test [4] was 96 µM (≈ 99.9 µg/mL); in [5], at least 96 µM; in [6] it was at least 192 µM; in [7] it was above 192 µM; in test [8], 192 µM (≈ 200 µg/mL); in test [9] it was at least 96 µM. Moreover, the MIC in [10] was at least 48 µM; in [11] it was 24 µM (≈ 25 µg/mL); in [12] it was 96 µM (≈ 99.9 µg/mL).

Regarding `CC(=O)N[C@@H](CCCCN)C(=O)N[C@@H](Cc1c[nH]c2ccccc12)C(=O)N[C@@H](CCCCN)C(=O)N[C@@H](CCCCN)C(=O)N[C@@H](CC(C)C)C(=O)N[C@@H](CC(C)C)C(=O)N[C@@H](CCCCN)C(=O)N[C@@H](CCCCN)C(=O)N1CCC[C@H]1C(=O)N[C@@H](CC(C)C)C(=O)N[C@@H](CC(C)C)C(=O)N[C@@H](CCCCN)C(=O)N[C@@H](CCCCN)C(=O)N[C@@H](CC(C)C)C(=O)N[C@@H](CC(C)C)C(=O)N[C@@H](CCCCN)C(=O)N[C@@H](CCCCN)C(=O)N[C@@H](CC(C)C)C(N)=O` [KWKKLLKKPLLKKLLKKL], the MIC in the test with Escherichia coli K91BK is at least 100 µM; in [13] it was 3.13 µM (≈ 7.16 µg/mL); in test [14], at least 100 µM.

Consider `CSCC[C@H](NC(=O)[C@H](CCCN=C(N)N)NC(=O)[C@H](CCCN=C(N)N)NC(=O)[C@@H](N)CC(N)=O)C(=O)N[C@@H](CCCCN)C(=O)N[C@@H](Cc1c[nH]c2ccccc12)C(=O)N[C@@H](CCCCN)C(=O)N[C@@H](CCCCN)C(N)=O` [NRRMKWKK], for which the MIC in the test on Escherichia coli is above 50 µM; in test [4] it was above 50 µM; in [15] it was at least 50 µM; in the test on Yersinia enterocolitica, at least 50 µM; in the test with Salmonella sp., at least 50 µM; in test [16], above 50 µM. Besides, the MIC in [17] and in test [12] was above 50 µM throughout.

As for `CC[C@H](C)[C@H](NC(=O)[C@H](CCCCN)NC(=O)[C@H](CCCN=C(N)N)NC(=O)[C@H](CC(C)C)NC(=O)[C@@H](NC(=O)[C@H](CCCCN)NC(=O)CNC(=O)[C@H](CC(C)C)NC(=O)[C@@H](NC(=O)[C@H](CCCCN)NC(=O)[C@H](CC(N)=O)NC(=O)[C@H](CCCN=C(N)N)NC(=O)[C@H](C)NC(=O)[C@H](CCSC)NC(=O)[C@@H]1CCCN1)[C@@H](C)CC)[C@@H](C)CC)C(=O)N[C@@H](C)C(=O)N[C@@H](C)C(=O)N[C@@H](Cc1ccccc1)C(=O)N[C@@H](CCCCN)C(=O)O` [PMARNKILGKILRKIAAFK], the results for the MIC in [18] and in [3] were 29.5 µM (≈ 64 µg/mL) and 3.69 µM (≈ 8 µg/mL), respectively.

Turning to `CC[C@H](C)[C@H](NC(=O)[C@H](CCC(N)=O)NC(=O)[C@@H](N)CCCN=C(N)N)C(=O)N[C@H](C(=O)N[C@@H](CCCN=C(N)N)C(=O)N[C@@H](CCCN=C(N)N)C(=O)N[C@@H](CCSC)C(=O)N[C@@H](Cc1c[nH]c2ccccc12)C(=O)N[C@@H](CCCN=C(N)N)C(N)=O)[C@@H](C)CC` [RQIIRRMWR], the MIC against Escherichia coli was 19 µM (≈ 25 µg/mL); in test [4] it was above 38 µM; in test [15], at least 38 µM; with Yersinia enterocolitica, at least 38 µM; against Salmonella sp., at least 38 µM; in [16], above 38 µM. For the same compound, in [17], the MIC was above 38 µM.

As for `CC[C@H](C)[C@H](NC(=O)[C@H](CCCCN)NC(=O)[C@@H](NC(=O)[C@H](CCC(N)=O)NC(=O)[C@@H](N)CCCN=C(N)N)[C@@H](C)CC)C(=O)N[C@@H](CCCN=C(N)N)C(=O)N[C@@H](CCCN=C(N)N)C(=O)N[C@@H](CCSC)C(=O)N[C@@H](CCCCN)C(=O)N[C@@H](Cc1c[nH]c2ccccc12)C(=O)N[C@@H](CCCN=C(N)N)C(N)=O` [RQIKIRRMKWR], the MIC in the test on Escherichia coli stood at 3.56 µM (≈ 5.59 µg/mL); in test [4], 7.96 µM (≈ 12.5 µg/mL); in test [15] it was 31.8 µM (≈ 50 µg/mL); against Yersinia enterocolitica, 3.98 µM (≈ 6.25 µg/mL); against Salmonella sp., 3.18 µM (≈ 5 µg/mL); in test [16], 31.8 µM (≈ 50 µg/mL). In addition, in test [17], the MIC was above 31.8 µM.

In the case of `CC[C@H](C)[C@H](NC(=O)[C@H](CCC(N)=O)NC(=O)[C@@H](N)CCCN=C(N)N)C(=O)N[C@@H](Cc1c[nH]c2ccccc12)C(=O)N[C@@H](Cc1c[nH]c2ccccc12)C(=O)N[C@@H](Cc1c[nH]c2ccccc12)C(=O)N[C@@H](Cc1c[nH]c2ccccc12)C(=O)N[C@@H](CCC(N)=O)C(=O)N[C@@H](CCCN=C(N)N)C(N)=O` [RQIWWWWQR], the MIC is 4.33 µM (≈ 6.25 µg/mL) against Escherichia coli; 4.33 µM (≈ 6.25 µg/mL) in test [4]; 8.65 µM (≈ 12.5 µg/mL) in test [15]; 17.3 µM (≈ 25 µg/mL) in the test on Yersinia enterocolitica; 4.33 µM (≈ 6.25 µg/mL) in the test on Salmonella sp.; above 34.6 µM in test [16]. For the same compound, the MIC in [17] was found to be 34.6 µM (≈ 50 µg/mL).

`CC[C@H](C)[C@H](NC(=O)[C@H](CCCCN)NC(=O)[C@@H](NC(=O)[C@H](CCCN=C(N)N)NC(=O)[C@H](CCCN=C(N)N)NC(=O)[C@H](CCSC)NC(=O)[C@H](CCCCN)NC(=O)[C@H](Cc1c[nH]c2ccccc12)NC(=O)[C@@H](N)CCCN=C(N)N)[C@@H](C)CC)C(=O)N[C@@H](CCC(N)=O)C(=O)N[C@@H](CCCN=C(N)N)C(N)=O` [RWKMRRIKIQR]: the minimal inhibitory concentration (MIC) was above 31.8 µM against Escherichia coli; above 31.8 µM in test [4]; 31.8 µM (≈ 50 µg/mL) in [15]; 31.8 µM (≈ 50 µg/mL) with Yersinia enterocolitica; 31.8 µM (≈ 50 µg/mL) in the test with Salmonella sp.; above 31.8 µM in [16]. In addition, the MIC in test [17] was above 31.8 µM.

A word on the MIC: it is the smallest concentration in the dilution series that meets the test's criterion for growth inhibition.

Source of the values: DBAASP.
